In ChEMBL document CHEMBL4373641, “Synthesis and direct comparison of the anticancer activities of phomopsolides D and E and two 7-oxa-/7-aza-analogues” (Medchemcomm, 2019):

Experiments:
Format in all cases: functional, cell-based
HT-29 = experiment: Antiproliferative activity against human HT-29 cells assessed as reduction in cell viability after 48 hrs by SRB assay; conditions: HT-29, 48 h
KM12 = experiment: Antiproliferative activity against human KM12 cells assessed as reduction in cell viability after 48 hrs by SRB assay; conditions: KM12, 48 h
HCT-15 = experiment: Antiproliferative activity against human HCT15 cells assessed as reduction in cell viability after 48 hrs by SRB assay; conditions: HCT-15, 48 h
HCT-116 = experiment: Antiproliferative activity against human HCT116 cells assessed as reduction in cell viability after 48 hrs by SRB assay; conditions: HCT-116, 48 h
HCC 2998 = experiment: Antiproliferative activity against human HCC2998 cells assessed as reduction in cell viability after 48 hrs by SRB assay; conditions: HCC 2998, 48 h
COLO 205 = experiment: Antiproliferative activity against human COLO205 cells assessed as reduction in cell viability after 48 hrs by SRB assay; conditions: COLO 205, 48 h
NCI-H522 = experiment: Antiproliferative activity against human NCI-H522 cells assessed as reduction in cell viability after 48 hrs by SRB assay; conditions: NCI-H522, 48 h, pooled result: one value given for 8 cell lines, strains, targets or settings
RPMI-8226 = experiment: Antiproliferative activity against human RPMI8226 cells assessed as reduction in cell viability after 48 hrs by SRB assay; conditions: RPMI-8226, 48 h
MOLT-4 = experiment: Antiproliferative activity against human MOLT4 cells assessed as reduction in cell viability after 48 hrs by SRB assay; conditions: MOLT-4, 48 h
K562 = experiment: Antiproliferative activity against human K562 cells assessed as reduction in cell viability after 48 hrs by SRB assay; conditions: K562, 48 h
HL-60(TB) = experiment: Antiproliferative activity against human HL-60(TB) cells assessed as reduction in cell viability after 48 hrs by SRB assay; conditions: HL-60, 48 h
CCRF-CEM = experiment: Antiproliferative activity against human CCRF-CEM cells assessed as reduction in cell viability after 48 hrs by SRB assay
SK-OV-3 = experiment: Antiproliferative activity against human SKOV3 cells assessed as reduction in cell viability after 48 hrs by SRB assay; conditions: SK-OV-3, 48 h
OVCAR-8 = experiment: Antiproliferative activity against human OVCAR8 cells assessed as reduction in cell viability after 48 hrs by SRB assay; conditions: OVCAR-8, 48 h
OVCAR-5 = experiment: Antiproliferative activity against human OVCAR5 cells assessed as reduction in cell viability after 48 hrs by SRB assay; conditions: OVCAR-5, 48 h
OVCAR-4 = experiment: Antiproliferative activity against human OVCAR4 cells assessed as reduction in cell viability after 48 hrs by SRB assay; conditions: OVCAR-4, 48 h
OVCAR-3 = experiment: Antiproliferative activity against human OVCAR3 cells assessed as reduction in cell viability after 48 hrs by SRB assay; conditions: OVCAR-3, 48 h
IGROV-1 = experiment: Antiproliferative activity against human IGROV1 cells assessed as reduction in cell viability after 48 hrs by SRB assay; conditions: IGROV-1, 48 h
UO-31 = experiment: Antiproliferative activity against human UO31 cells assessed as reduction in cell viability after 48 hrs by SRB assay; conditions: UO-31, 48 h
TK-10 = experiment: Antiproliferative activity against human TK10 cells assessed as reduction in cell viability after 48 hrs by SRB assay; conditions: TK-10, 48 h
SN12C = experiment: Antiproliferative activity against human SN12C cells assessed as reduction in cell viability after 48 hrs by SRB assay
RXF 393 = experiment: Antiproliferative activity against human RXF393 cells assessed as reduction in cell viability after 48 hrs by SRB assay; conditions: RXF 393, 48 h
CAKI-1 = experiment: Antiproliferative activity against human CAKI-1 cells assessed as reduction in cell viability after 48 hrs by SRB assay; conditions: CAKI-1, 48 h
ACHN = experiment: Antiproliferative activity against human ACHN cells assessed as reduction in cell viability after 48 hrs by SRB assay
A498 = experiment: Antiproliferative activity against human A498 cells assessed as reduction in cell viability after 48 hrs by SRB assay; conditions: A498, 48 h
786-0 = experiment: Antiproliferative activity against human 786-0 cells assessed as reduction in cell viability after 48 hrs by SRB assay; conditions: 786-0, 48 h
DU-145 = experiment: Antiproliferative activity against human DU145 cells assessed as reduction in cell viability after 48 hrs by SRB assay; conditions: DU-145, 48 h
PC-3 = experiment: Antiproliferative activity against human PC3 cells assessed as reduction in cell viability after 48 hrs by SRB assay; conditions: PC-3, 48 h
T47D = experiment: Antiproliferative activity against human T47D cells assessed as reduction in cell viability after 48 hrs by SRB assay
MDA-MB-435 = experiment: Antiproliferative activity against human MDA-MB-435 cells assessed as reduction in cell viability after 48 hrs by SRB assay; conditions: MDA-MB-435, 48 h
Hs-578T = experiment: Antiproliferative activity against human Hs 578T cells assessed as reduction in cell viability after 48 hrs by SRB assay
MDA-MB-231 = experiment: Antiproliferative activity against human MDA-MB-231 cells assessed as reduction in cell viability after 48 hrs by SRB assay; conditions: MDA-MB-231, 48 h
NCI/ADR-RES = experiment: Antiproliferative activity against human NCI/ADR-RES cells assessed as reduction in cell viability after 48 hrs by SRB assay
MCF7 = experiment: Antiproliferative activity against human MCF7 cells assessed as reduction in cell viability after 48 hrs by SRB assay; conditions: MCF7, 48 h
U-251 = experiment: Antiproliferative activity against human U251 cells assessed as reduction in cell viability after 48 hrs by SRB assay; conditions: U-251, 48 h
SNB-75 = experiment: Antiproliferative activity against human SNB75 cells assessed as reduction in cell viability after 48 hrs by SRB assay; conditions: SNB-75, 48 h
SNB-19 = experiment: Antiproliferative activity against human SNB19 cells assessed as reduction in cell viability after 48 hrs by SRB assay; conditions: SNB-19, 48 h
SF-539 = experiment: Antiproliferative activity against human SF539 cells assessed as reduction in cell viability after 48 hrs by SRB assay; conditions: SF-539, 48 h
SF-295 = experiment: Antiproliferative activity against human SF295 cells assessed as reduction in cell viability after 48 hrs by SRB assay; conditions: SF-295, 48 h
SF-268 = experiment: Antiproliferative activity against human SF268 cells assessed as reduction in cell viability after 48 hrs by SRB assay; conditions: SF-268, 48 h
UACC-62 = experiment: Antiproliferative activity against human UACC62 cells assessed as reduction in cell viability after 48 hrs by SRB assay; conditions: UACC-62, 48 h, pooled result: one value given for 8 cell lines, strains, targets or settings
SW-620 = experiment: Antiproliferative activity against human SW620 cells assessed as reduction in cell viability after 48 hrs by SRB assay; conditions: SW-620, 48 h
HOP-92 = experiment: Antiproliferative activity against human HOP92 cells assessed as reduction in cell viability after 48 hrs by SRB assay; conditions: HOP-92, 48 h
BT-549 = experiment: Antiproliferative activity against human BT549 cells assessed as reduction in cell viability after 48 hrs by SRB assay; conditions: BT-549, 48 h
MDA-MB-468 = experiment: Antiproliferative activity against human MDA-MB-468 cells assessed as reduction in cell viability after 48 hrs by SRB assay; conditions: MDA-MB-468, 48 h
SR = experiment: Antiproliferative activity against human SR cells assessed as reduction in cell viability after 48 hrs by SRB assay

With `C/C=C(\C)C(=O)O[C@H]1C=CC(=O)O[C@H]1COC(=O)[C@H](C)O` the IC50 (HT-29) was 11 µM, the IC50 (KM12) was 11 µM and the IC50 (HCT-15) was 11 µM. The IC50 (HCT-116) was 11 µM, the IC50 (HCC 2998) was 11 µM and the IC50 (COLO 205) was 11 µM. For the same compound, the IC50 (NCI-H522) was 19 µM, the IC50 (RPMI-8226) was 2 to 49 µM and the IC50 (MOLT-4) was 2 to 49 µM. It also gave an IC50 (K562) of 2 to 49 µM, an IC50 (HL-60(TB)) of 2 to 49 µM and an IC50 (CCRF-CEM) of 2 to 49 µM. It also gave an IC50 (SK-OV-3) of 16 µM, an IC50 (OVCAR-8) of 16 µM and an IC50 (OVCAR-5) of 16 µM. For the same compound, the IC50 (OVCAR-4) was 16 µM, the IC50 (OVCAR-3) was 16 µM and the IC50 (IGROV-1) was 16 µM. It also gave an IC50 (UO-31) of 15 µM, an IC50 (TK-10) of 15 µM and an IC50 (SN12C) of 15 µM. It also gave an IC50 (RXF 393) of 15 µM, an IC50 (CAKI-1) of 15 µM and an IC50 (ACHN) of 15 µM. The IC50 (A498) was 15 µM, the IC50 (786-0) was 15 µM and the IC50 (DU-145) was 16 µM. For the same compound, the IC50 (PC-3) was 16 µM, the IC50 (T47D) was 12 µM and the IC50 (MDA-MB-435) was 12 µM. It also gave an IC50 (Hs-578T) of 12 µM, an IC50 (MDA-MB-231) of 12 µM and an IC50 (NCI/ADR-RES) of 12 µM. The IC50 (MCF7) was 12 µM, the IC50 (U-251) was 16 µM and the IC50 (SNB-75) was 16 µM. It also gave an IC50 (SNB-19) of 16 µM, an IC50 (SF-539) of 16 µM and an IC50 (SF-295) of 16 µM. For the same compound, the IC50 (SF-268) was 16 µM, the IC50 (UACC-62) was 13 µM and the IC50 (SW-620) was 11 µM. It also gave an IC50 (HOP-92) of 2 to 49 µM, an IC50 (BT-549) of 2 to 49 µM and an IC50 (MDA-MB-468) of 2 to 49 µM. For the same compound, the IC50 (SR) was 2 to 49 µM.
Compound `C/C=C(\C)C(=O)O[C@H]1C=CC(=O)O[C@H]1CC[C@H](O)[C@H](C)O` [6,7-DIHYDROPHOMOPSOLIDE B] has an IC50 (HT-29) of 2 to 49 µM, an IC50 (KM12) of 2 to 49 µM and an IC50 (HCT-15) of 2 to 49 µM. For the same compound, the IC50 (HCT-116) was 2 to 49 µM, the IC50 (HCC 2998) was 2 to 49 µM and the IC50 (COLO 205) was 2 to 49 µM. The IC50 (NCI-H522) was 18 µM, the IC50 (RPMI-8226) was 2 to 49 µM and the IC50 (MOLT-4) was 2 to 49 µM. It also gave an IC50 (K562) of 2 to 49 µM, an IC50 (HL-60(TB)) of 2 to 49 µM and an IC50 (CCRF-CEM) of 2 to 49 µM. For the same compound, the IC50 (SK-OV-3) was 18 µM, the IC50 (OVCAR-8) was 18 µM and the IC50 (OVCAR-5) was 18 µM. The IC50 (OVCAR-4) was 18 µM, the IC50 (OVCAR-3) was 18 µM and the IC50 (IGROV-1) was 18 µM. It also gave an IC50 (UO-31) of 2 to 49 µM, an IC50 (TK-10) of 2 to 49 µM and an IC50 (SN12C) of 2 to 49 µM. It also gave an IC50 (RXF 393) of 2 to 49 µM, an IC50 (CAKI-1) of 2 to 49 µM and an IC50 (ACHN) of 2 to 49 µM. It also gave an IC50 (A498) of 2 to 49 µM, an IC50 (786-0) of 2 to 49 µM and an IC50 (DU-145) of 18 µM. The IC50 (PC-3) was 18 µM, the IC50 (T47D) was 11 µM and the IC50 (MDA-MB-435) was 11 µM. It also gave an IC50 (Hs-578T) of 11 µM, an IC50 (MDA-MB-231) of 11 µM and an IC50 (NCI/ADR-RES) of 11 µM. The IC50 (MCF7) was 11 µM, the IC50 (U-251) was 17 µM and the IC50 (SNB-75) was 17 µM. The IC50 (SNB-19) was 17 µM, the IC50 (SF-539) was 17 µM and the IC50 (SF-295) was 17 µM. The IC50 (SF-268) was 17 µM, the IC50 (UACC-62) was 2 to 49 µM and the IC50 (SW-620) was 2 to 49 µM. The IC50 (HOP-92) was 2 to 49 µM, the IC50 (BT-549) was 2 to 49 µM and the IC50 (MDA-MB-468) was 2 to 49 µM. The IC50 (SR) was 2 to 49 µM.
